Source: patent US7973018B2, “Cell cycle arrest and apoptosis” (University of Utah Research Foundation, priority 2004, dated 2011)
Entries after “also recorded” stand apart in the source; their conditions may differ.

Columns and labels:
BRCA1 [1] = assay: BRCA1 focus formation, immunofluorescence confocal microscopy; format: cell-based, human
Protocol: (§1) Immunofluorescence staining. HeLa cells were harvested 48 h posttransduction by trypsinization. Single-cell suspensions of minced thymic tissue were prepared for immunostaining 20 h after HIV-1NL4-3 infection. Cells were fixed with 2% paraformaldehyde in phosphate-buffered saline (PBS) for 35 min at 4° C. and then washed three times for 5 min each time in PBS. All subsequent steps were carried out at room temperature. Samples were blocked and permeabilized for 20 min in blocking buffer (3% bovine serum albumin (BSA), 0.2% Triton X-100, and 0.01% skim milk in PBS). Primary antibody (rabbit anti-γ-H2AX (48) or rabbit anti-BRCA1 (Bethyl Laboratories, Montgomery, Tex.)) was diluted 1:400 in incubation buffer (1% BSA and 0.02% Triton X-100 in PBS) and incubated with cells for 45 min. Cells were washed with PBS, after which secondary antibody (goat anti-rabbit immunoglobulin G (IgG)-AlexaFluor568 conjugate (Molecular Probes, Eugene, Oreg.)) diluted 1:500 in incubation buffer was applied for 35 min. Cells were washed with PBS as before and mounted on glass slides by using Fluor Save reagent (CalBiochem, San Diego, Calif.). Cells were visualized for γ-H2AX or BRCA1 immunostaining and green fluorescent protein (GFP) expression by scanning fluorescence confocal microscopy (FluoView FV300; Olympus, Melville, N.Y.).
(§2) Drug treatment. Cells were incubated with 10 mM hydroxyurea (HU) for 2 h before immunostaining was done.
(§3) Vpr expression induces γ-H2AX and BRCA1 focus formation. It was possible that Vpr, through ATR activation, would induce γ-H2AX (9) and BRCA1 (45) focus formation. To test this hypothesis, HeLa cells were infected with pHR-Vpr or pHR-GFP and, 48 h later, immunostained with γ-H2AX- or BRCA1-specific antibodies. As a positive control, nontransduced cells were treated for […] with 10 mM HU 10 min prior to immunostaining (46). Samples then were visualized by fluorescence scanning confocal microscopy (FIGS. 3A and B). Cells with multiple (10 or more), intense nuclear foci were manually counted. […]

γ-H2AX = γ-H2AX focus formation, immunofluorescence confocal microscopy; format: cell-based, human
Protocol: as §1, §2, §3

ATM and ATR = conditions: vpr-infected cells; references 5, 53; cited from earlier work
ATR and ATM = conditions: references 40, 53; cited from earlier work
p53 = test system: p53; parameters: key: P, phosphorylated; A, activated; N, necessary for G2 checkpoint activation; F, focus formation; ?, unknown; D, dispensable for G2 checkpoint activation; conditions: ATR target p53; reference 41; cited from earlier work
BRCA1 [2] = assay: Western blot for BRCA1 phospho-serine 1423; format: cell-based, human; conditions: HeLa cells infected with pHR-VPR, 48 hours post-transduction
Protocol: Western blotting procedures. All western blots were performed using the BioRad Criterion gel system (BioRad, Hercules, Calif.). Antibodies used were GADD45 (Santa Cruz Biotechnology, Santa Cruz, Calif.; sc-797), Actin (Santa Cruz Biotechnologies, Santa Cruz, Calif.; sc-797), CHK2 (Santa Cruz Biotechnology, Santa Cruz, Calif.; sc-8813), ATM (Novus Biologicals, Littleton, Colo.; catalog #100-104H1), phospho-JNK-Tyr183 (Cell Signaling Technology, Beverly, Mass.; catalog #9255S), phospho-p38 kinase (Promega, Madison; 15823207), JNK (Cell Signaling Technology, Beverly, Mass.; 9252), ATR (obtained from Dr. Paul Nghiem, Harvard), anti-rabbit secondary-HRP (Santa Cruz Biotechnology, Santa Cruz, Calif.; sc-2030), anti-goat secondary-HRP (Santa Cruz Biotechnology, Santa Cruz, Calif.; sc-2033), PARP (Cell Signaling Technology, Beverly, Mass.), BRCA1 phospho ser1423 (Bethyl Laboratories, Montgomery, Tex.) Rabbit primary antibodies against Rad17 (Santa Cruz Biotechnology, Santa Cruz, Calif.), and were applied for 90 min at room temperature. Blots were washed three times in TPBS (0.1% Tween 20 in PBS) for 10 min each time at room temperature.
Phosphorylation of BRCA1 at serine 1423 by HIV-1 Vpr is ATR-dependent. Following DNA damage, ATR phosphorylates BRCA1 at serine 1423 (45, 63). […]

HeLa cells = assay: Cell cycle analysis (G2 arrest) by flow cytometry in HeLa cells; format: cell-based, human; parameters: key: P, phosphorylated; A, activated; N, necessary for G2 checkpoint activation; F, focus formation; ?, unknown; D, dispensable for G2 checkpoint activation; conditions: ATR target Rad17; this work
Protocol: Cell cycle analysis. At 48 h after infection, cells were detached by trypsinization, washed with fluorescence-activated cell sorting (FACS) buffer (2% FBS and 0.02% sodium azide in PBS), fixed with 2% paraformaldehyde in PBS, and permeabilized with 0.01% Triton X-100 in PBS for 15 min. Cells were washed again with FACS buffer, incubated in DNA staining buffer (10 μg of propidium iodide/ml and 11.25 kU of RNase A/ml in FACS buffer) for 15 min, and analyzed by FACScan flow cytometry for GFP expression or DNA content (Beckton Dickinson, Franklin Lakes, N.J.). In experiments involving transduction with lentivirus vectors, experiments with 90% transduction efficiency or higher were analyzed. […]
Lentivirus vectors. […] Vector titers were measured by infection of HeLa cells as described herein, followed by flow cytometric analysis of cells that were positive for the reporter molecule, GFP. Vector titers were calculated with the equation [(F×C0)/V]×D, where F is the frequency of GFP-positive cells found by flow cytometry, C0 is the total number of target cells at the time of infection, V is the volume of inoculum, and D is the virus dilution factor. […]
Rad17 is necessary for Vpr-mediated G2 arrest. […] At 48 h after transduction, cells were analyzed by flow cytometry for infection efficiency and DNA content, as reported by GFP expression and propidium iodide staining, respectively. […]

Chk1 = conditions: ATR target Chk1; reference 40; cited from earlier work
[3] = nontransduced HeLa cells treated for 1 h with 10 mM HU
[4] = HeLa cells, 48 h after infection, 10 or more intense nuclear foci

NC(=O)NO [HU, hydroxyurea, reference compound]
cells exhibiting BRCA1 foci (BRCA1 [1]; [3]): ~65%
cells exhibiting γ-H2AX foci (γ-H2AX; [3]): Approximately 94%

Cn1c(=O)c2c(ncn2C)n(C)c1=O [caffeine]
effect on Vpr-induced apoptosis (ATM and ATR): largely eliminated induction of apoptosis; also recorded: significantly reduces Vpr-induced apoptosis
relief of Vpr-induced G2 arrest (ATR and ATM): completely relieve Vpr-induced G2 arrest

Vpr: HIV-1 accessory protein Vpr, expressed in cells from pHR-Vpr
Status in the presence of Vpr (reference or source): p53 (p53): D (41)
Status in the presence of Vpr (reference or source): BRCA1 (BRCA1 [1]; ATR target BRCA1, this work): P, F (this work)
cells exhibiting BRCA1 foci (BRCA1 [1]; [4]): ~69%
phosphorylation of BRCA1 at serine 1423 (BRCA1 [2]): induced phosphorylation of BRCA1 at serine 1423
Status in the presence of Vpr (reference or source): Rad17 (HeLa cells): N (this work)
Status in the presence of Vpr (reference or source): Chk1 (Chk1): P, A (40)
Status in the presence of Vpr (reference or source): H2AX (γ-H2AX; ATR target H2AX, this work): P, F (this work)
cells exhibiting γ-H2AX foci (γ-H2AX; [4]): Approximately 93%
